Target: recombinant full length HPK-1 enzyme (Homo sapiens (Human), UniProt Q92918)
Assay: HPK-1 biochemical enzyme assay (ADP-Glo kinase inhibition)
Details: recombinant full length HPK-1 6.8 nM, 10 μM ATP, 12.5 μM MBP, 30 mins at 25° C.
Procedure: HPK-1 biochemical enzyme assay
Compound inhibitory potency was measured in an HPK-1 kinase inhibition assay. Briefly, recombinant full length HPK-1 enzyme (6.8 nM) was incubated with 10 μM ATP and 12.5 μM swine myelin basic protein (MBP) for 30 mins. at 25° C. in the presence of various concentrations of test compound or vehicle in 40 mM Tris.Cl pH7.4 buffer containing 20 mM MgCl2, 50 μM DTT and 0.1 mg/mL BSA. Reactions were quenched and reaction mixtures were then analyzed by an ADP-Glo kit which measures the formed ADP. The percent inhibition was calculated from the substrate conversion considering no enzyme control reactions for 100% inhibition and vehicle only reactions for 0% inhibition. The compounds were dissolved in DMSO and evaluated at 10 concentrations to determine an IC50 value.
In the below table A denotes an HPK-1 IC50≤10 nM, B denotes an HPK-1 IC50>10 nM but≤100 nM and C denotes an HPK-1 IC50>100 nM but≤1000 nM.

Sequence of recombinant full length HPK-1 enzyme (Q92918 whole entry, species assumed): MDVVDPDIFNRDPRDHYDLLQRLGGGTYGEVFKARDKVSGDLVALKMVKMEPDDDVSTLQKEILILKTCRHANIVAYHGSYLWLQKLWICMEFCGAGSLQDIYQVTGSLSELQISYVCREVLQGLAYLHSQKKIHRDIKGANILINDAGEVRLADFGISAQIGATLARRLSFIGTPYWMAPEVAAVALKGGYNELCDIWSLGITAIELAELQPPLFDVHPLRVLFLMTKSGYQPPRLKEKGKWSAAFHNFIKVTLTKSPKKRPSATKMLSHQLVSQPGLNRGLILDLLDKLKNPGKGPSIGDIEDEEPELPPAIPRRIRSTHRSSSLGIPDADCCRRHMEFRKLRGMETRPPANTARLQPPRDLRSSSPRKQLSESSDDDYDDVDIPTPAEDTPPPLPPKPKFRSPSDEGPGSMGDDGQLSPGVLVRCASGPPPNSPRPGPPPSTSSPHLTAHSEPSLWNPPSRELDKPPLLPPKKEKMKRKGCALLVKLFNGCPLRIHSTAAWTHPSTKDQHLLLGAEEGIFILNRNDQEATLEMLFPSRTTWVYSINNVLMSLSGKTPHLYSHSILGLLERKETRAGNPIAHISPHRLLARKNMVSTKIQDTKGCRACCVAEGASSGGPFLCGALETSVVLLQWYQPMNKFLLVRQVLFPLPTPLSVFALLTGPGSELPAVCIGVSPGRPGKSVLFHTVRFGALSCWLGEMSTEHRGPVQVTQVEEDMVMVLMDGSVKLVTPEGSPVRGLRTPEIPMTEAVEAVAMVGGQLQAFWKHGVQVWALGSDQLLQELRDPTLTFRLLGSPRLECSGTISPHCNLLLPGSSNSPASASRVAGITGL

Row | IC50 [nM] | Compound
1 | ≤ 10 | Cc1c(Nc2cc[nH]c(=O)c2C(=O)Nc2ccc(N3CCN(Cc4ccn[nH]4)CC3)cc2)cnc2c1NCC(C)O2 (stereo not shown) [Example 193, N-(4-(4-((1H-pyrazol-5-yl)methyl)piperazin-1-yl)phenyl)-4-((3,8-dimethyl-2,3-dihydro-1H-pyrido[2,3-b][1,4]oxazin-7-yl)amino)-2-oxo-1,2-dihydropyridine-3-carboxamide]
2 | 100 to 1000 | Cc1cc(N2CCN(C)CC2)ccc1NC(=O)c1c(Nc2cnc3c(c2C)NCCO3)cc[nH]c1=O [Example 195, 4-((8-methyl-2,3-dihydro-1H-pyrido[2,3-b][1,4]oxazin-7-yl)amino)-N-(2-methyl-4-(4-methylpiperazin-1-yl)phenyl)-2-oxo-1,2-dihydropyridine-3-carboxamide]
3 | 10 to 100 | Cc1c(Nc2cc[nH]c(=O)c2C(=O)Nc2ccc(N3CCN(C)CC3)c(C(F)(F)F)c2)cnc2c1NCC(C)O2 (stereo not shown) [Example 196, 4-((3,8-dimethyl-2,3-dihydro-1H-pyrido[2,3-b][1,4]oxazin-7-yl)amino)-N-(4-(4-methylpiperazin-1-yl)-3-(trifluoromethyl)phenyl)-2-oxo-1,2-dihydropyridine-3-carboxamide]
4 | 10 to 100 | COCC1CN(C)CCN1c1ccc(NC(=O)c2c(Nc3cnc4c(c3C)NCC(C)O4)cc[nH]c2=O)cc1 (stereo not shown) [Example 197, 4-((3,8-Dimethyl-2,3-dihydro-1H-pyrido[2,3-b][1,4]oxazin-7-yl)amino)-N-(4-(2-(methoxymethyl)-4-methylpiperazin-1-yl)phenyl)-2-oxo-1,2-dihydropyridine-3-carboxamide]
5 | 10 to 100 | Cc1c(Nc2cc[nH]c(=O)c2C(=O)Nc2ccc(N3CCN(C)CC3)cc2)cnc2c1NCC(F)O2 (stereo not shown) [Example 198, 4-((3-Fluoro-8-methyl-2,3-dihydro-1H-pyrido[2,3-b][1,4]oxazin-7-yl)amino)-N-(4-(4-methylpiperazin-1-yl)phenyl)-2-oxo-1,2-dihydropyridine-3-carboxamide]
6 | 10 to 100 | Cc1c(Nc2cc[nH]c(=O)c2C(=O)Nc2ccc(N3CCN(C)CC3)nc2)cnc2c1NCC(C)O2 (stereo not shown) [Example 199]
7 | ≤ 10 | Cc1cc(NC(=O)c2c(Nc3cnc4c(c3C)NCC(C)O4)cc[nH]c2=O)ccc1N1CCN(C)CC1 (stereo not shown) [Example 200, 4-((3,8-dimethyl-2,3-dihydro-1H-pyrido[2,3-b][1,4]oxazin-7-yl)amino)-N-(3-methyl-4-(4-methylpiperazin-1-yl)phenyl)-2-oxo-1,2-dihydropyridine-3-carboxamide]
8 | 10 to 100 | Cc1c(Nc2cc[nH]c(=O)c2C(=O)Nc2ccc(N3CCN4CCCC4C3)cc2)cnc2c1NCC(C)O2 (stereo not shown) [Example 201, 4-((3,8-dimethyl-2,3-dihydro-1H-pyrido[2,3-b][1,4]oxazin-7-yl)amino)-N-(4-(hexahydropyrrolo[1,2-a]pyrazin-2(1H)-yl)phenyl)-2-oxo-1,2-dihydropyridine-3-carboxamide]
9 | 10 to 100 | COCCN1CCC(c2ccc(NC(=O)c3c(Nc4cnc5c(c4C)NCCO5)cc[nH]c3=O)cc2)CC1 [Example 202, N-(4-(1-(2-methoxyethyl)piperidin-4-yl)phenyl)-4-((8-methyl-2,3-dihydro-1H-pyrido[2,3-b][1,4]oxazin-7-yl)amino)-2-oxo-1,2-dihydropyridine-3-carboxamide]
10 | 10 to 100 | COc1cc(NC(=O)c2c(Nc3cnc4c(c3C)NCC(C)O4)cc[nH]c2=O)ccc1N1CCN(C)CC1 (stereo not shown) [Example 203, 4-((3,8-dimethyl-2,3-dihydro-1H-pyrido[2,3-b][1,4]oxazin-7-yl)amino)-N-(3-methoxy-4-(4-methylpiperazin-1-yl)phenyl)-2-oxo-1,2-dihydropyridine-3-carboxamide]
11 | 10 to 100 | Cc1c(Nc2cc[nH]c(=O)c2C(=O)Nc2ccc(N3CCN(C)CC3)c(CO)c2)cnc2c1NCC(C)O2 (stereo not shown) [Example 204, 4-((3,8-dimethyl-2,3-dihydro-1H-pyrido[2,3-b][1,4]oxazin-7-yl)amino)-N-(3-(hydroxymethyl)-4-(4-methylpiperazin-1-yl)phenyl)-2-oxo-1,2-dihydropyridine-3-carboxamide]
12 | 10 to 100 | Cc1c(Nc2cc[nH]c(=O)c2C(=O)Nc2ccc(N3CCOCC3)cc2)cnc2c1NCCO2 [Example 205, 4-((8-methyl-2,3-dihydro-1H-pyrido[2,3-b][1,4]oxazin-7-yl)amino)-N-(4-morpholinophenyl)-2-oxo-1,2-dihydropyridine-3-carboxamide]
13 | 10 to 100 | Cc1c(Nc2cc[nH]c(=O)c2C(=O)Nc2ccc(CN3CCN(C)CC3)cc2)cnc2c1NCCO2 [Example 206, 4-((8-methyl-2,3-dihydro-1H-pyrido[2,3-b][1,4]oxazin-7-yl)amino)-N-(4-((4-methylpiperazin-1-yl)methyl)phenyl)-2-oxo-1,2-dihydropyridine-3-carboxamide]
14 | 10 to 100 | Cc1c(Nc2cc[nH]c(=O)c2C(=O)Nc2ccc(N3CCN(C)CC3)cc2F)cnc2c1NCCO2 [Example 207, N-(2-fluoro-4-(4-methylpiperazin-1-yl)phenyl)-4-((8-methyl-2,3-dihydro-1H-pyrido[2,3-b][1,4]oxazin-7-yl)amino)-2-oxo-1,2-dihydropyridine-3-carboxamide]

Second part, the compound before the results:

Row | Compound | IC50 [nM]
15 | Cc1c(Nc2cc[nH]c(=O)c2C(=O)Nc2ccc(N3CCN(C(=O)N(C)C)CC3)cc2)cnc2c1NCC(C)O2 (stereo not shown) [Example 182, 4-(4-(4-((3,8-dimethyl-2,3-dihydro-1H-pyrido[2,3-b][1,4]oxazin-7-yl)amino)-2-oxo-1,2-dihydropyridine-3-carboxamido)phenyl)-N,N-dimethylpiperazine-1-carboxamide] | ≤ 10
16 | Cc1c(Nc2cc[nH]c(=O)c2C(=O)Nc2ccc(N3CCN(C(C)C)CC3)c(F)c2)cnc2c1NCC(C)O2 (stereo not shown) [Example 183, 4-((3,8-dimethyl-2,3-dihydro-1H-pyrido[2,3-b][1,4]oxazin-7-yl)amino)-N-(3-fluoro-4-(4-isopropylpiperazin-1-yl)phenyl)-2-oxo-1,2-dihydropyridine-3-carboxamide] | ≤ 10
17 | Cc1c(Nc2cc[nH]c(=O)c2C(=O)Nc2ccc(C3CC(=O)N(C)C3)cc2)cnc2c1NCCO2 (stereo not shown) [Example 184, 4-((8-methyl-2,3-dihydro-1H-pyrido[2,3-b][1,4]oxazin-7-yl)amino)-N-(4-(1-methyl-5-oxopyrrolidin-3-yl)phenyl)-2-oxo-1,2-dihydropyridine-3-carboxamide] | ≤ 10
18 | COCCN1CCN(c2ccc(NC(=O)c3c(Nc4cnc5c(c4C)NCC(C)O5)cc[nH]c3=O)cc2F)CC1 (stereo not shown) [Example 185, 4-((3,8-dimethyl-2,3-dihydro-1H-pyrido[2,3-b][1,4]oxazin-7-yl)amino)-N-(3-fluoro-4-(4-(2-methoxyethyl)piperazin-1-yl)phenyl)-2-oxo-1,2-dihydropyridine-3-carboxamide] | ≤ 10
19 | Cc1c(Nc2cc[nH]c(=O)c2C(=O)Nc2ccc(N3CCN(CCO)CC3)c(F)c2)cnc2c1NCC(C)O2 (stereo not shown) [Example 186, 4-((3,8-dimethyl-2,3-dihydro-1H-pyrido[2,3-b][1,4]oxazin-7-yl)amino)-N-(3-fluoro-4-(4-(2-hydroxyethyl)piperazin-1-yl)phenyl)-2-oxo-1,2-dihydropyridine-3-carboxamide] | ≤ 10
20 | Cc1c(Nc2cc[nH]c(=O)c2C(=O)Nc2ccc(N3CCN(C4CCCC4)CC3)cc2)cnc2c1NCC(C)O2 (stereo not shown) [Example 187, N-(4-(4-cyclopentylpiperazin-1-yl)phenyl)-4-((3,8-dimethyl-2,3-dihydro-1H-pyrido[2,3-b][1,4]oxazin-7-yl)amino)-2-oxo-1,2-dihydropyridine-3-carboxamide] | ≤ 10
21 | CCC1CNc2c(ncc(Nc3cc[nH]c(=O)c3C(=O)Nc3ccc(N4CCN(C)CC4)cc3)c2C)O1 (stereo not shown) [Example 188, 4-((3-ethyl-8-methyl-2,3-dihydro-1H-pyrido[2,3-b][1,4]oxazin-7-yl)amino)-N-(4-(4-methylpiperazin-1-yl)phenyl)-2-oxo-1,2-dihydropyridine-3-carboxamide] | 10 to 100
22 | Cc1c(Nc2cc[nH]c(=O)c2C(=O)Nc2ccc(N3CCN(C)CC3)cc2)cnc2c1NCC(C(C)C)O2 (stereo not shown) [Example 189, 4-((3-isopropyl-8-methyl-2,3-dihydro-1H-pyrido[2,3-b][1,4]oxazin-7-yl)amino)-N-(4-(4-methylpiperazin-1-yl)phenyl)-2-oxo-1,2-dihydropyridine-3-carboxamide] | 10 to 100
23 | Cc1c(Nc2cc[nH]c(=O)c2C(=O)Nc2ccc(N3CCN(C)CC3)cc2)cnc2c1NCC1(CC1)O2 [Example 190, 4-((8′-methyl-1′,2′-dihydrospiro[cyclopropane-1,3′-pyrido[2,3-b][1,4]oxazin]-7′-yl)amino)-N-(4-(4-methylpiperazin-1-yl)phenyl)-2-oxo-1,2-dihydropyridine-3-carboxamide] | 10 to 100
24 | Cc1c(Nc2cc[nH]c(=O)c2C(=O)Nc2ccc(N3CCN(C)CC3)c(C#N)c2)cnc2c1NCC(C)O2 (stereo not shown) [Example 191, N-(3-cyano-4-(4-methylpiperazin-1-yl)phenyl)-4-((3,8-dimethyl-2,3-dihydro-1H-pyrido[2,3-b][1,4]oxazin-7-yl)amino)-2-oxo-1,2-dihydropyridine-3-carboxamide] | 10 to 100
25 | Cc1c(Nc2cc[nH]c(=O)c2C(=O)Nc2cnn(C3CCN(C)CC3)c2)cnc2c1NCC(C)O2 (stereo not shown) [Example 192, 4-((3,8-dimethyl-2,3-dihydro-1H-pyrido[2,3-b][1,4]oxazin-7-yl)amino)-N-(1-(1-methylpiperidin-4-yl)-1H-pyrazol-4-yl)-2-oxo-1,2-dihydropyridine-3-carboxamide] | 10 to 100

Reference: patent publication US20250282794A1 (CURADEV PHARMA LTD, priority 2022, published 2025)
